Legend:
Assay type in all cases: cell-based, human
LAMP-1 (CD107a) = experiment: TRAP-stimulated whole blood flow cytometry, LAMP-1; settings: E5555 100 ng/ml, Mean ± SD
Description: (§1) The methodology employed was conventional aggregation induced by 5 μM ADP, 1 μg/ml collagen, 10 μM TRAP, whole blood aggregation with 1 μg/ml collagen, Ultegra, and PFA-100 Analyzers, expression of 14 intact, and TRAP-stimulated major receptors by whole blood flow cytometry were utilized to assess platelet activity after preincubation with escalating concentrations of E5555 (20 ng/ml, 50 ng/ml, and 100 ng/ml). The experiments were performed in healthy volunteers, CAD patients treated with ASA, and CAD patients treated with ASA and clopidogrel combination (n=10, for each group).
(§2) An Informed Consent was obtained from all volunteers. Drug users were excluded from data analysis. The study was approved by Quorum Institutional Review Board. All subjects underwent blood sampling after at least 30 minutes of rest and two or more hours of fasting. Blood (28 ml) was drawn between 8 and 10 a.m. in order to avoid any diurnal influence and sampled from an antecubital vein using a 21-gauge butterfly needle containing 3.2% sodium citrate (1:9 volume) after having discarded the first 1.5 ml of free running blood. Four Vacutainer tubes (7.0 ml) were collected for a total of 28 ml of whole blood-citrate mixture from each study participant. Chronologically, blood samples were delivered to the core laboratory facility within 45 minutes after drawing. Then all tubes of blood-citrate mixture were pooled. One portion of pooled blood (5 ml) was kept as an internal control and pretreated with the vehicle. The remaining blood (23 ml) was used for the in vitro exposure to E5555 at concentrations of 20 ng/ml, 50 ng/ml, and 100 ng/ml. […] The platelet aggregation studies, Rapid Analyzers measures, and flow cytometry preparations were initiated within no more than 110 minutes following the blood draw, incubation with the drug, and preparation of the samples.
(§3) Formation of platelet-leukocyte aggregates was assessed by dual labeling with pan-platelet marker (CD151), and then with CD14, the macrophage receptor for endotoxin lipopolysaccharides (PharMingen, and Coulter, San Diego, Calif., USA). The tubes were then covered with aluminum foil and incubated at 37° C. for 40 minutes with gentle rotation. After incubation, samples were immediately analyzed on a Becton Dickinson FACScan flow cytometer. The instrument was set up to measure forward light scatter, and FITC fluorescence. All parameters were collected using four-decade logarithmic amplification. The data was retrieved in list mode files and then analyzed. P selectin was expressed as percent positive cells. Other antigens were expressed as log mean fluorescence intensity.
For flow cytometry (TRAP-stimulated) all of the above flow cytometry experiments were identically repeated utilizing prestimulation with 10 μmol/L TRAP for 5 minutes at 37° C. To determine statistics, a Paired Sign Test was used to define significance of differences between vehicle and E5555-treated groups. The Mann-Whitney U test was used to analyze nonparametric data. Normally distributed data were expressed as mean±standard error (m±SE), and skewed data as median (range). All P-values were two sided. All analysis was performed using the SPSS v9.0 program (SPSS Inc., Chicago, Ill.).

PAC-1 (GPIIb/IIIa) = experiment: Unstimulated whole blood flow cytometry, PAC-1; settings: for PAC-1 (GPIIb/IIIa), Mean Fluorescence Intensity: unstimulated, Mean ± SD
Description: as §1, §2, §3

VTNR (CD51/61) = experiment: Unstimulated whole blood flow cytometry, vitronectin receptor; settings: for VTNR (CD51/61), Mean Fluorescence Intensity: unstimulated, Mean ± SD
Description: as §1, §2, §3

platelets = experiment: Platelet aggregation induced by 10 μM TRAP; settings: for Platelet Aggregation (%), TRAP 10 μM: Mean ± SD
Description: as §1, §2
Platelet counts were determined in each PRP sample with a Coulter Counter ZM (Coulter Co., Hialeah, Fla.). Platelet numbers were adjusted to 3.50×10^8/ml for aggregation using homologous platelet-poor plasma. Platelet aggregation was stimulated with 5 μM ADP, 1 μg/ml collagen, or 10 μM TRAP. All agonists were obtained from Chronolog Corporation (Havertown, Pa.) and Sigma (St. Louis, Miss.). Platelet aggregation experiments were performed using a Chrono-Log Lumi-Aggregometer (model 560-Ca). Aggregation curves were recorded for 4 minutes and analyzed according to internationally established standards using Aggrolink® software. Platelet aggregability was expressed as the percentage of light transmittance change from baseline using platelet-poor plasma as a reference.

[1] = overall summary, stimulation not stated
[2] = E5555 20 ng/ml, Patients (ASA + C)
[3] = E5555 50 ng/ml, Patients (ASA + C)
[4] = E5555 100 ng/ml, Patients (ASA + C)
[5] = E5555 100 ng/ml, Patients (ASA)

SMILES: Br.CCOc1cc2c(c(F)c1OCC)C(=N)N(CC(=O)c1cc(N3CCOCC3)c(OC)c(C(C)(C)C)c1)C2 [E5555, 1-(3-tert-butyl-4-methoxy-5-morpholinophenyl)-2-(5,6-diethoxy-7-fluoro-1-imino-1,3-dihydro-2H-isoindol-2-yl)ethanone hydrobromide]
- LAMP-1 (CD107a), Mean Fluorescence Intensity (LAMP-1 (CD107a); Patients (ASA)): 3.1 ± 0.7 MFI
- LAMP-1 (CD107a), Mean Fluorescence Intensity (LAMP-1 (CD107a); Volunteers): 4.7 ± 0.8 MFI
- GP IIb/IIIa activity with PAC-1, effect in words (PAC-1 (GPIIb/IIIa); [1]): significant reduction
- PAC-1 (GPIIb/IIIa), Mean Fluorescence Intensity (PAC-1 (GPIIb/IIIa); [2]): 5.9 ± 0.8 MFI
- PAC-1 (GPIIb/IIIa), Mean Fluorescence Intensity (PAC-1 (GPIIb/IIIa); E5555 20 ng/ml, Patients (ASA)): 10.4 ± 1.2 MFI
- PAC-1 (GPIIb/IIIa), Mean Fluorescence Intensity (PAC-1 (GPIIb/IIIa); E5555 20 ng/ml, Volunteers): 10.7 ± 1.3 MFI
- PAC-1 (GPIIb/IIIa), Mean Fluorescence Intensity (PAC-1 (GPIIb/IIIa); [3]): 6.2 ± 1.0 MFI
- PAC-1 (GPIIb/IIIa), Mean Fluorescence Intensity (PAC-1 (GPIIb/IIIa); E5555 50 ng/ml, Patients (ASA)): 10.1 ± 2.0 MFI
- PAC-1 (GPIIb/IIIa), Mean Fluorescence Intensity (PAC-1 (GPIIb/IIIa); E5555 50 ng/ml, Volunteers): 9.2 ± 1.5 MFI
- PAC-1 (GPIIb/IIIa), Mean Fluorescence Intensity (PAC-1 (GPIIb/IIIa); [4]): 6.3 ± 0.7 MFI
- PAC-1 (GPIIb/IIIa), Mean Fluorescence Intensity (PAC-1 (GPIIb/IIIa); [5]): 11.7 ± 2.1 MFI
- PAC-1 (GPIIb/IIIa), Mean Fluorescence Intensity (PAC-1 (GPIIb/IIIa); E5555 100 ng/ml, Volunteers): 9.9 ± 2.0 MFI
- vitronectin receptor expression, effect in words (VTNR (CD51/61); [1]): significant reduction
- VTNR (CD51/61), Mean Fluorescence Intensity (VTNR (CD51/61); [2]): 7.9 ± 1.8 MFI
- VTNR (CD51/61), Mean Fluorescence Intensity (VTNR (CD51/61); E5555 20 ng/ml, Patients (ASA)): 8.4 ± 1.5 MFI
- VTNR (CD51/61), Mean Fluorescence Intensity (VTNR (CD51/61); E5555 20 ng/ml, Volunteers): 8.7 ± 0.6 MFI
- VTNR (CD51/61), Mean Fluorescence Intensity (VTNR (CD51/61); [3]): 8.2 ± 1.6 MFI
- VTNR (CD51/61), Mean Fluorescence Intensity (VTNR (CD51/61); E5555 50 ng/ml, Patients (ASA)): 8.6 ± 2.1 MFI
- VTNR (CD51/61), Mean Fluorescence Intensity (VTNR (CD51/61); E5555 50 ng/ml, Volunteers): 9.1 ± 1.0 MFI
- VTNR (CD51/61), Mean Fluorescence Intensity (VTNR (CD51/61); [4]): 9.0 ± 2.4 MFI
- VTNR (CD51/61), Mean Fluorescence Intensity (VTNR (CD51/61); [5]): 8.3 ± 14 MFI
- VTNR (CD51/61), Mean Fluorescence Intensity (VTNR (CD51/61); E5555 100 ng/ml, Volunteers): 9.6 ± 1.1 MFI
- TRAP-induced aggregation, effect in words (platelets; ASA-treated patients with coronary artery disease): fully inhibiting
- TRAP-induced aggregation, effect in words (platelets; CAD patients treated with ASA+clopidogrel): profound blockade
- Platelet Aggregation (%), TRAP 10 μM (platelets; E5555 20 ng/ml, CAD patients treated with ASA + clopidogrel): 2.2 ± 1.6 %
- Platelet Aggregation (%), TRAP 10 μM (platelets; E5555 20 ng/ml, CAD patients treated with ASA): 2.7 ± 1.4 %
- Platelet Aggregation (%), TRAP 10 μM (platelets; E5555 20 ng/ml, healthy volunteers): 2.1 ± 1.2 %
- Platelet Aggregation (%), TRAP 10 μM (platelets; E5555 50 ng/ml, CAD patients treated with ASA + clopidogrel): 1.8 ± 1.0 %
- Platelet Aggregation (%), TRAP 10 μM (platelets; E5555 50 ng/ml, CAD patients treated with ASA): 3.3 ± 1.8 %
- Platelet Aggregation (%), TRAP 10 μM (platelets; E5555 50 ng/ml, healthy volunteers): 1.3 ± 1.2 %
- Platelet Aggregation (%), TRAP 10 μM (platelets; E5555 100 ng/ml, CAD patients treated with ASA + clopidogrel): 2.7 ± 2.2 %
- Platelet Aggregation (%), TRAP 10 μM (platelets; E5555 100 ng/ml, CAD patients treated with ASA): 2.9 ± 2.0 %
- Platelet Aggregation (%), TRAP 10 μM (platelets; E5555 100 ng/ml, healthy volunteers): 2.7 ± 1.8 %
- TRAP-induced aggregation, effect in words (platelets; healthy volunteers, E5555 20, 50, and 100 ng/ml): inhibited completely
- TRAP-induced aggregation, effect in words (platelets; overall summary of the study): inhibited almost completely
